The results in this text go back to patent publication US20250145606A1 (Arcus Biosciences, Inc., priority 2023, published 2025).

Read-outs that look alike come from different tables or passages of the source. Bounds are passed on as bounds.

For one assay, the target named is PDGFRβ (Homo sapiens (Human), UniProt P09619). The experiment in a line: Inhibition of PDGFRβ kinase activity (HTRF KinEASE-TK). Particulars: biochemical, HTRF KinEASE-TK. A digest of the protocol: (§1)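 Phosphorylation of biotinylated TK peptide read by HTRF (665/620 nm ratio) after 120 min at rt, following 1 h enzyme–compound preincubation. ATP (2× mix): 20 μM CSF1R, 16 μM c-Kit, 40 μM PDGFRβ, 1 μM PDGFRα; MgCl2 10 mM except c-Kit 5 mM. 22-point 1:2 titration; four-parameter IC50.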
Chain of PDGFRβ (P09619 33-1106): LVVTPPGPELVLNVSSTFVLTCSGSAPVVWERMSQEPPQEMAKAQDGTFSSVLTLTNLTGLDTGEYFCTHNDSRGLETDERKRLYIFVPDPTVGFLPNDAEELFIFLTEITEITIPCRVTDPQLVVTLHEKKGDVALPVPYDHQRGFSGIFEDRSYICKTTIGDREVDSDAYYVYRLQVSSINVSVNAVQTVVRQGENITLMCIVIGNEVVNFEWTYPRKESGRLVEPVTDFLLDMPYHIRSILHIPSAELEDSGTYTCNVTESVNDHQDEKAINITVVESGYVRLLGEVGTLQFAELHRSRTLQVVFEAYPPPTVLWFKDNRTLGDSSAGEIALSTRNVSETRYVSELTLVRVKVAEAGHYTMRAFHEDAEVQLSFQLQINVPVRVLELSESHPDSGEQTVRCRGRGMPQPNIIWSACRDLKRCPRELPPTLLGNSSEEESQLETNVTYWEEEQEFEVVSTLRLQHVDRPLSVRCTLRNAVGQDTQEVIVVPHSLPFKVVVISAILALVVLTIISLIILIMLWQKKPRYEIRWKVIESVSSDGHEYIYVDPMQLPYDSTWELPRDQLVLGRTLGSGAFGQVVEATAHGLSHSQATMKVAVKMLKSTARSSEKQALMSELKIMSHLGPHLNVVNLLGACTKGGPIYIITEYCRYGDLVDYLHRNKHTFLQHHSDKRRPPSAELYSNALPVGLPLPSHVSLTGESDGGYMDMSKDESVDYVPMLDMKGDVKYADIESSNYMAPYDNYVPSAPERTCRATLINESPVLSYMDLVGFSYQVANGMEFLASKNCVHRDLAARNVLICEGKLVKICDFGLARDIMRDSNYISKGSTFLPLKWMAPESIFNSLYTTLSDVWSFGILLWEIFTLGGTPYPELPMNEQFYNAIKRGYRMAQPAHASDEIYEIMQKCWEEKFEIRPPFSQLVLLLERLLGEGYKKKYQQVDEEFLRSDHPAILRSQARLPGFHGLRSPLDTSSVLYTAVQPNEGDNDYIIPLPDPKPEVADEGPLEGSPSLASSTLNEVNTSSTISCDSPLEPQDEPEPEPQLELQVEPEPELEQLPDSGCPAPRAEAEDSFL
For orientation: In TR-FRET formats the signal depends on donor and acceptor labels being close together.

The target of another assay is c-Kit (Homo sapiens (Human), UniProt P10721). The experiment in a line: Inhibition of c-Kit kinase activity (HTRF KinEASE-TK). Particulars: biochemical, HTRF KinEASE-TK. Format: biochemical. The procedure, abridged:
as §1

Assay [1] concerns Phospho-KIT (Y703) in M07e cells. The experiment in a line: Phospho-KIT (Y703) cellular assay in M07e cells. Format: cell-based. The conditions noted are these: M-07e, read-out: M07e Cell IC50. The procedure, abridged:
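Serum-starved M07e cells preincubated 50 min at 37° C with 11-point half-log compound titration, then stimulated 10 min with SCF at 90.9 ng/mL final. Fixed, permeabilized cells stained for phospho-KIT Y703 and read by flow cytometry (live-gated geometric mean); IC50 by 4-parameter fit normalized to DMSO and positive control.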

A further assay addresses FLT3 (Homo sapiens (Human), UniProt P36888). The experiment in a line: Inhibition of FLT3 kinase activity (HTRF KinEASE-TK). Format: biochemical. Particulars: biochemical, HTRF KinEASE-TK. A digest of the protocol: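 FLT3 tyrosine kinase activity was measured with the HTRF KinEASE-TK kit by following phosphorylation of a biotinylated TK peptide. After the 45 min reaction, 10 μL of detection mix was added: 0.2 μM (2×) Streptavidin-XL665 and 2 μM (2×) TK-Antibody-Cryptate in detection buffer. After 60 min, TR-FRET was read on an Envision as the 665 nm/620 nm emission ratio with 320 nm excitation.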

The target in another assay is PDGFRα (Homo sapiens (Human), UniProt P16234). The experiment in a line: Inhibition of PDGFRα kinase activity (HTRF KinEASE-TK). Particulars: biochemical, HTRF KinEASE-TK. The procedure, abridged:
as §1

The next assay deals with CSF1R (Homo sapiens (Human), UniProt P07333). The experiment in a line: Inhibition of CSF1R kinase activity (HTRF KinEASE-TK). The conditions noted are these: biochemical, HTRF KinEASE-TK. The procedure, abridged:
as §1

Chain of c-Kit (P10721 26-976): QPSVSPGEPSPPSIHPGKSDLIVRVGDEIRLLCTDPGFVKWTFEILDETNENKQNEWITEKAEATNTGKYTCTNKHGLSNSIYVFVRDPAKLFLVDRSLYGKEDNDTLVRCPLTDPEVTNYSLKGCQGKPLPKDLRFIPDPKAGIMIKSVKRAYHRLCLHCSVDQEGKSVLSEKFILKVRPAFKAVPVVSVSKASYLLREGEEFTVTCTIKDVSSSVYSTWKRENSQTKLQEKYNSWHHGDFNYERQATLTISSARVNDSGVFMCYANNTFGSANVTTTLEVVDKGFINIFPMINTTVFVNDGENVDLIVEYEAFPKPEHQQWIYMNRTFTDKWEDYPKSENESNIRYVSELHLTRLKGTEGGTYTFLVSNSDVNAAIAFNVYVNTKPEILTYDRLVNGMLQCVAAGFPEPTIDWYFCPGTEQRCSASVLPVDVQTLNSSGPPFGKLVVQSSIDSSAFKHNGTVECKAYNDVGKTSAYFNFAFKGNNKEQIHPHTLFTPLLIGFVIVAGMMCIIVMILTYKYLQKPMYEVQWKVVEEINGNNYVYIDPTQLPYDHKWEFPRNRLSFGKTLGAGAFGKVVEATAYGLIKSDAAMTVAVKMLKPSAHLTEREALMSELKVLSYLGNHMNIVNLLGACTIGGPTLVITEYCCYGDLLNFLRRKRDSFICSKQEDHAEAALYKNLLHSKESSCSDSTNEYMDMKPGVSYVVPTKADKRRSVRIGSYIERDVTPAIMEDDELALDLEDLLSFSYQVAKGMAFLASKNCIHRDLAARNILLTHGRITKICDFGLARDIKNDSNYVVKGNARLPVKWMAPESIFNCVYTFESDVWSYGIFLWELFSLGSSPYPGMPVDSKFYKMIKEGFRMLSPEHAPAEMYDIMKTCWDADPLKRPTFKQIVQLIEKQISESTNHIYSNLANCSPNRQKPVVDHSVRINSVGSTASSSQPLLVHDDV
Chain of PDGFRα (P16234 24-1089): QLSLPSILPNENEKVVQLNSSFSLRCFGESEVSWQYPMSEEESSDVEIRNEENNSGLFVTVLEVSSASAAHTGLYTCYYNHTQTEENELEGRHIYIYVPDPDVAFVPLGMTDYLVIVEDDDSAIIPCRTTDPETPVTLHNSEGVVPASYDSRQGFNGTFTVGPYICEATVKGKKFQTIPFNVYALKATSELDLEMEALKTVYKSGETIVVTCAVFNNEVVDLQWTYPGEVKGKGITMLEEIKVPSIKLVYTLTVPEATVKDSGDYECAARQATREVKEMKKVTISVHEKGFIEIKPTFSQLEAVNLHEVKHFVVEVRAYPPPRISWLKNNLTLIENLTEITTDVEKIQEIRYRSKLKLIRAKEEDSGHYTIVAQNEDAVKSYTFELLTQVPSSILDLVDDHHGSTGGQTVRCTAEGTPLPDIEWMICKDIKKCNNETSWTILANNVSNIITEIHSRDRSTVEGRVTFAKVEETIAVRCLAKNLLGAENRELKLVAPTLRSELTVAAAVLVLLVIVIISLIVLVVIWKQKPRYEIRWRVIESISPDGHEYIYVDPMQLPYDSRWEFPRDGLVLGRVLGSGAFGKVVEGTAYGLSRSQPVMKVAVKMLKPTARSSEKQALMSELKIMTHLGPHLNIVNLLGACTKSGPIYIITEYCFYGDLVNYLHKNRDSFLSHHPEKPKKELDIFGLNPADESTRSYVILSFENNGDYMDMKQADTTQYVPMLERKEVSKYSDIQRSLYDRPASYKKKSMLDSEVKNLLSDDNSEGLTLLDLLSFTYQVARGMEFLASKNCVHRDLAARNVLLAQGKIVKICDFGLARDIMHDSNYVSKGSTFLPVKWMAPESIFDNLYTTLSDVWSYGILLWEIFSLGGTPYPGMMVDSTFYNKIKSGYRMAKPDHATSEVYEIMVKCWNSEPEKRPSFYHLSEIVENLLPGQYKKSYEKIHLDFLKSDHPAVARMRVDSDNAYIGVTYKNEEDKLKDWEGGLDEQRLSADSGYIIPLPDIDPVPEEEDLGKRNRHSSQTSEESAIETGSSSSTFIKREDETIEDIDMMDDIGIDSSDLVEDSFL
Chain of CSF1R (P07333 20-972): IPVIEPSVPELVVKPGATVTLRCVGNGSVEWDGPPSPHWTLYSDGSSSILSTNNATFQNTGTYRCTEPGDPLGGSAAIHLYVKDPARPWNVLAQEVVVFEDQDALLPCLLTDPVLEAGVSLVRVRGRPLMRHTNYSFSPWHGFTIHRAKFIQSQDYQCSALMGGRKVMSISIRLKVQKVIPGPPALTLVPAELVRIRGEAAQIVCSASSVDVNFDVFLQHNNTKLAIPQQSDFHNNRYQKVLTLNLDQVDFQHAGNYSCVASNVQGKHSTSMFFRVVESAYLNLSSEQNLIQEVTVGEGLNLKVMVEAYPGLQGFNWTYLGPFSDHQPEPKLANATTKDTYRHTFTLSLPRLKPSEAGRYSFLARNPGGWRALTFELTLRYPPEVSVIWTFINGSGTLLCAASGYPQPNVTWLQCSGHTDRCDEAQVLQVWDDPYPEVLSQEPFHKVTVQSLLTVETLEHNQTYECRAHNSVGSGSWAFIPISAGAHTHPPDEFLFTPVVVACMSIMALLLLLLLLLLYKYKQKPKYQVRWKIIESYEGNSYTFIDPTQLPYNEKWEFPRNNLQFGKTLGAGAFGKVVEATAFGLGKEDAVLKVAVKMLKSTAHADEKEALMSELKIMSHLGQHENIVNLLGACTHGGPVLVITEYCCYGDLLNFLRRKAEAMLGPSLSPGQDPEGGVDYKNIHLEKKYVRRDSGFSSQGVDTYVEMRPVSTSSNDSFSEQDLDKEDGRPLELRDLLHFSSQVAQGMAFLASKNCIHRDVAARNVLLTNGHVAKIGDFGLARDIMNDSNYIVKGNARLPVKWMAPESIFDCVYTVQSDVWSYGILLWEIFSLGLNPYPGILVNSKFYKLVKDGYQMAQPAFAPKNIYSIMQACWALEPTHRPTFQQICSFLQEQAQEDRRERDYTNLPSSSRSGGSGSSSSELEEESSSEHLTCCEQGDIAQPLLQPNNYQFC
Chain of FLT3 (P36888 27-993): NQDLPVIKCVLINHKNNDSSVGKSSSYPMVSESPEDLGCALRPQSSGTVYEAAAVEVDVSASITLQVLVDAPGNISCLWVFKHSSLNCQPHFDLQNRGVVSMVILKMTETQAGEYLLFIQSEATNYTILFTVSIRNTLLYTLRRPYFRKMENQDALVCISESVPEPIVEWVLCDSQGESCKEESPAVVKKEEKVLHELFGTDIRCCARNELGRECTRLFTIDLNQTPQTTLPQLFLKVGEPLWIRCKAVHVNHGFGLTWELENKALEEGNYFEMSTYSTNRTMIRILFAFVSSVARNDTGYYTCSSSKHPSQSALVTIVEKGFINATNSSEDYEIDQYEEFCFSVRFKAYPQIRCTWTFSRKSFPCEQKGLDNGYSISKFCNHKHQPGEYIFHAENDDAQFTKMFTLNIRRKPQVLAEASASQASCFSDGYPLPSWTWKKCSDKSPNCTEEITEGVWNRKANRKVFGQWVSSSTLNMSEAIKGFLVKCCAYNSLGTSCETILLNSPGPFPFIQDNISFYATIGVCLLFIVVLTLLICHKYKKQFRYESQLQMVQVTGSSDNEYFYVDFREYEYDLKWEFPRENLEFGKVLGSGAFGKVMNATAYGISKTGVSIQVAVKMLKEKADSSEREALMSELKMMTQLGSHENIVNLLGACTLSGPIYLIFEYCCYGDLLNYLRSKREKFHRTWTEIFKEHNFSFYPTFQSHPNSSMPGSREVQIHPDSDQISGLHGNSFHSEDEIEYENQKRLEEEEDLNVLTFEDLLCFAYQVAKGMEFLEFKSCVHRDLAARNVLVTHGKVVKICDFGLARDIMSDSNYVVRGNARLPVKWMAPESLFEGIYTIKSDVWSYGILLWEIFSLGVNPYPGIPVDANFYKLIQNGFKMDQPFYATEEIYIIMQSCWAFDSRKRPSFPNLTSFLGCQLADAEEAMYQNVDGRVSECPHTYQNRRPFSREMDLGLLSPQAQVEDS

As for `Cc1ncc(C(=O)Nc2cc(C(=O)Nc3ccc(C(C)(F)F)cn3)c(F)cc2C)s1` [Example 20, N-[5-[[5-(1,1-Difluoroethyl)pyridin-2-yl]carbamoyl]-4-fluoro-2-methylphenyl]-2-methyl-1,3-thiazole-5-carboxamide], the IC50 (in general, the concentration that inhibits the measured activity by half) against PDGFRβ was more than 1 µM; against c-Kit, less than 0.1 µM; in assay [1] (Phospho-KIT (Y703), M07e cells) it was less than 0.1 µM; at FLT3, more than 1 µM; against PDGFRα it was more than 1 µM; against CSF1R it was more than 1 µM.
Turning to `Cc1ncc(C(=O)Nc2cc(C(=O)N[C@@H]3C[C@H]3c3ccccc3)c(F)cc2C)s1` [Example 31, N-[4-Fluoro-2-methyl-5-[[(1R,2S)-2-phenylcyclopropyl]carbamoyl]phenyl]-2-methyl-1,3-thiazole-5-carboxamide], the IC50 against PDGFRβ was more than 1 µM; at c-Kit it was less than 0.1 µM; in assay [1] (Phospho-KIT (Y703), M07e cells), less than 0.1 µM; at FLT3 it was more than 1 µM; on PDGFRα it was more than 1 µM; on CSF1R it was more than 1 µM.
Turning to `Cc1ncc(C(=O)Nc2cc(C(=O)Nc3ccc(OC(C)C)cn3)c(F)cc2C)s1` [Example 40, N-[4-fluoro-2-methyl-5-[(5-propan-2-yloxypyridin-2-yl)carbamoyl]phenyl]-2-methyl-1,3-thiazole-5-carboxamide], the IC50 on PDGFRβ was more than 1 µM; on c-Kit it was less than 0.1 µM; in assay [1] (Phospho-KIT (Y703), M07e cells), less than 0.1 µM; against FLT3 it was more than 1 µM; against PDGFRα, more than 1 µM; against CSF1R, more than 1 µM.
Take `Cc1ncc(C(=O)Nc2cc(C(=O)Nc3ccc(CC(F)F)cn3)c(F)cc2C)s1` [Example 45, N-[5-[[5-(2,2-difluoroethyl)pyridin-2-yl]carbamoyl]-4-fluoro-2-methylphenyl]-2-methyl-1,3-thiazole-5-carboxamide]: the IC50 at PDGFRβ was more than 1 µM; against c-Kit it was less than 0.1 µM; in assay [1] it was less than 0.1 µM; against FLT3, more than 1 µM; on PDGFRα, more than 1 µM; on CSF1R, more than 1 µM.
Regarding `Cc1ncc(C(=O)Nc2cc(C(=O)Nc3ccn(C(C)C)n3)c(F)cc2C)s1` [Example 63, N-[4-Fluoro-2-methyl-5-[(1-propan-2-ylpyrazol-3-yl)carbamoyl]phenyl]-2-methyl-1,3-thiazole-5-carboxamide], the IC50 at PDGFRβ is more than 1 µM; on c-Kit, less than 0.1 µM; in assay [1] (Phospho-KIT (Y703), M07e cells), less than 0.1 µM; at FLT3 it was more than 1 µM; on PDGFRα, more than 1 µM; against CSF1R, more than 1 µM.
Take `Cc1ncc(C(=O)Nc2cc(C(=O)Nc3ccn(CC(C)C)n3)c(F)cc2C)s1` [Example 64, N-[4-fluoro-2-methyl-5-[[1-(2-methylpropyl)pyrazol-3-yl]carbamoyl]phenyl]-2-methyl-1,3-thiazole-5-carboxamide]: the IC50 against PDGFRβ was more than 1 µM; on c-Kit, less than 0.1 µM; in assay [1] (Phospho-KIT (Y703), M07e cells) it was less than 0.1 µM; against FLT3, more than 1 µM; on PDGFRα it was more than 1 µM; at CSF1R, more than 1 µM.
Regarding `Cc1ncc(C(=O)Nc2cc(C(=O)Nc3ccc(C4(C(F)(F)F)CC4)cn3)c(F)cc2C)s1` [Example 67], the IC50 is 0.1 to 1 µM against PDGFRβ; less than 0.1 µM against c-Kit; less than 0.1 µM in assay [1] (Phospho-KIT (Y703), M07e cells); more than 1 µM against FLT3; more than 1 µM at PDGFRα; more than 1 µM against CSF1R.
On to `Cc1ncc(C(=O)Nc2cc(C(=O)Nc3ccc(CC(F)(F)F)cn3)c(C)cc2C)s1` [Example 75, N-(2,4-dimethyl-5-((5-(2,2,2-trifluoroethyl)pyridin-2-yl)carbamoyl)phenyl)-2-methylthiazole-5-carboxamide], for which the IC50 at PDGFRβ is more than 1 µM; against c-Kit, 0.1 to 1 µM; in assay [1], 0.1 to 1 µM; on FLT3, more than 1 µM; against PDGFRα, more than 1 µM; against CSF1R it was more than 1 µM.
Turning to `Cc1ncc(C(=O)Nc2cc(C(=O)Nc3ccc(COC(F)F)cn3)c(F)cc2C)s1` [Example 78, N-[5-[[5-(difluoromethoxymethyl)pyridin-2-yl]carbamoyl]-4-fluoro-2-methylphenyl]-2-methyl-1,3-thiazole-5-carboxamide], the IC50 was more than 1 µM against PDGFRβ; less than 0.1 µM against c-Kit; less than 0.1 µM in assay [1]; more than 1 µM against FLT3; more than 1 µM against PDGFRα; more than 1 µM on CSF1R.
Take `Cc1ncc(C(=O)Nc2cc(C(=O)Nc3cncc(COC(F)F)c3)c(F)cc2C)s1` [Example 80, N-[5-[[5-(difluoromethoxymethyl)pyridin-3-yl]carbamoyl]-4-fluoro-2-methylphenyl]-2-methyl-1,3-thiazole-5-carboxamide]: the IC50 is more than 1 µM on PDGFRβ; less than 0.1 µM against c-Kit; less than 0.1 µM in assay [1]; more than 1 µM on FLT3; more than 1 µM on PDGFRα; more than 1 µM on CSF1R.
Regarding `CCc1ccc(NC(=O)c2cc(NC(=O)c3cnc(C)s3)c(C)cc2F)nc1` [Example 82, N-[5-[(5-ethylpyridin-2-yl)carbamoyl]-4-fluoro-2-methylphenyl]-2-methyl-1,3-thiazole-5-carboxamide], the IC50 against PDGFRβ is more than 1 µM; against c-Kit it was less than 0.1 µM; in assay [1] (Phospho-KIT (Y703), M07e cells) it was less than 0.1 µM; against FLT3, more than 1 µM; against PDGFRα, more than 1 µM; against CSF1R, more than 1 µM.
For `Cc1ncc(C(=O)Nc2cc(C(=O)Nc3cnc(N4CCC[C@@H]4C)cn3)c(F)cc2C)s1` [Example 83, N-(5-{N-5-[(S)-2-methyl-1-pyrrolidinyl]-2-pyrazinylcarbamoyl}-4-fluoro-2-tolyl)-2-methyl-1,3-thiazole-5-carboxamide], the IC50 was more than 1 µM on PDGFRβ; less than 0.1 µM at c-Kit; less than 0.1 µM in assay [1] (Phospho-KIT (Y703), M07e cells); more than 1 µM against FLT3; more than 1 µM on PDGFRα; more than 1 µM at CSF1R.
Turning to `Cc1ncc(C(=O)Nc2cc(C(=O)Nc3cnc(OCC(F)F)cn3)c(F)cc2C)s1` [Example 86, N-{5-[N-5-(2,2-difluoroethoxy)-2-pyrazinylcarbamoyl]-4-fluoro-2-tolyl}-2-methyl-1,3-thiazole-5-carboxamide], the IC50 is more than 1 µM against PDGFRβ; less than 0.1 µM against c-Kit; less than 0.1 µM in assay [1] (Phospho-KIT (Y703), M07e cells); more than 1 µM at FLT3; 0.1 to 1 µM against PDGFRα; more than 1 µM against CSF1R.
As to `Cc1ncc(C(=O)Nc2cc(C(=O)Nc3cnc(OCC(F)(F)F)cn3)c(F)cc2C)s1` [Example 89, N-{5-[N-5-(2,2,2-trifluoroethoxy)-2-pyrazinylcarbamoyl]-4-fluoro-2-tolyl}-2-methyl-1,3-thiazole-5-carboxamide], the IC50 is more than 1 µM against PDGFRβ; less than 0.1 µM against c-Kit; less than 0.1 µM in assay [1] (Phospho-KIT (Y703), M07e cells); more than 1 µM against FLT3; more than 1 µM against PDGFRα; more than 1 µM on CSF1R.
As to `Cc1ncc(C(=O)Nc2cc(C(=O)Nc3cnc(N4CCC[C@@H]4C(F)(F)F)cn3)c(F)cc2C)s1` [Example 96, N-[4-fluoro-2-methyl-5-[[5-[(2R)-2-(trifluoromethyl)pyrrolidin-1-yl]pyrazin-2-yl]carbamoyl]phenyl]-2-methyl-1,3-thiazole-5-carboxamide], the IC50 is more than 1 µM against PDGFRβ; less than 0.1 µM against c-Kit; less than 0.1 µM in assay [1] (Phospho-KIT (Y703), M07e cells); more than 1 µM on FLT3; more than 1 µM against PDGFRα; more than 1 µM against CSF1R.
As to `Cc1cc(F)c(C(=O)N[C@H]2CCOC2)cc1NC(=O)c1cnc(NC(=O)N2CCC2)s1` [Example 102, 2-(Azetidine-1-carbonylamino)-N-[4-fluoro-2-methyl-5-[[(3S)-oxolan-3-yl]carbamoyl]phenyl]-1,3-thiazole-5-carboxamide], the IC50 is more than 1 µM at PDGFRβ; less than 0.1 µM on c-Kit; 0.1 to 1 µM in assay [1] (Phospho-KIT (Y703), M07e cells); more than 1 µM against FLT3; more than 1 µM at PDGFRα; 0.1 to 1 µM on CSF1R.
For the molecule `Cc1cc(F)c(C(=O)NCC2(F)CC2)cc1NC(=O)c1cnc(NC(=O)N2CCC2)s1` [Example 103, 2-(Azetidine-1-carbonylamino)-N-[4-fluoro-5-[(1-fluorocyclopropyl)methylcarbamoyl]-2-methylphenyl]-1,3-thiazole-5-carboxamide], the IC50 on PDGFRβ is 0.1 to 1 µM; against c-Kit, less than 0.1 µM; in assay [1] (Phospho-KIT (Y703), M07e cells) it was less than 0.1 µM; at FLT3 it was more than 1 µM; at PDGFRα, 0.1 to 1 µM; against CSF1R, more than 1 µM.
